Experimental data from patent EP3821949B1, “PHARMACEUTICAL COMPOSITION FOR USE IN THE TREATMENT OF A CANCER ASSOCIATED WITH THE ACTIVATION OF GALECTIN-1” (Trineo Biotechnology Co. Ltd, priority 2019, dated 2021).
Several values for one entry are separate records, joined by “and”; a condition that tells them apart may be missing. Equal values may be shown once.

Tests used:
Assay type in all cases: cell-based
[1] = tested on: myeloma ARH-77 cells; assay: MTT assay on myeloma ARH-77 cells, chemotherapeutic drug alone or combined with TN-GL-01 or a comparative drug; details: for IC50: Homo sapiens, ARH-77 cells, chemotherapeutic agent alone (control)
Procedure: (§1) Ovarian cancer cell ES-2 and myeloma cell line ARH-77 were used in the present disclosure. Cells was cultured and maintained in Dulbecco's modified Eagle media (DMEM) supplemented with 10 % fetal bovine serum (FBS), 100 IU/ml penicillin, […] streptomycin, 2 mM glutamine, nonessential amino acids and sodium pyruvate in 5% CO2 at 37 °C. Cells were grown and maintained in Petri dishes (each was 10 cm in diameter) until they reached 80% confluence, and then were subject to cell passages. Briefly, cells were first washed with phosphate buffer solution (PBS, 3 ml) once, then treated with 0.05% Trypsin/0.025% EDTA solution (1 mL) for 5 min so that the attached cells become suspended. The suspended cells were harvested and 2 mL fresh culture media were added therein to neutralize any remaining activity of trypsin. Cell density was adjusted by adding appropriate amounts of culture medium to the cell suspension, which was then used to seed the culture plates. The plates were then returned to the incubator, and cultured in accordance with the steps described above.
Cells were seeded in 96-well plates with a density of 3,000 cells/well and cultured in accordance with the procedures described above. On the day when cell activity analysis was to be conducted, cells were first treated with various concentrations of the triterpenoids of the present disclosure, imatinib or gefitinib for at least 48 hrs, before subjecting them to MTT assay.
(§2) 50 µL of the MTT stock solution (5 mg MTT dissolved in 1 ml of sterile PBS) was added to each well, and 50 µL of the MTT stock solution was added to 500 µL of medium alone and used as a negative control. Each sample was incubated at 37°C for 4 hours. Aliquots (450 µl) from each sample were taken to a new well of 48-well culture plate, adding 100µL DMSO, mixing thoroughly using the pipette and reacted at 37°C for 20 min and absorbance was measured at 570 nm.
In this example, the effect of TN-GL-01 composition of example 1.1 on the cell killing effect of a chemotherapeutic drug (i.e., etoposide, doxorubicin, cisplatin, and paclitaxel) on myeloma ARH-77 cells was investigated, in which cyclophosphamide served as a comparative drug. Results are summarized in Tables 1 to 3, and Figures 3 and 4.
To determine the effects of combined use of TN-GL-01 and any other three drugs including paclitaxel, doxorubicin, and cisplatin, the statistical differences between expected value and oberved value of the survival rate were calculated. If no significantance existed between the expected and observed values, the effect is termed"additivity (p > 0.05)". […] The expected value was determined by multifying the survival rate of each drug in specific dose. The obtained value and value of each survival rate were measured by MMT assay (Fig. 3 and Fig. 4).

[2] = tested on: galectin-1; assay: Western blot analysis of galectin-1 expression in ES-2 cells; details: Figure 2
Procedure: Samples were respectively subjected to SDS-PAGE, transferred to PVDF membranes. These blots were blocked with 5% nonfat milk powder in TBS-0.1% Tween-20 for 30 minutes, followed by incubation with primary antibodies at 4°C overnight and then horseradish peroxidaseconjugated secondary antibodies (Amersham Biosciences, Piscataway). Imaging of bands was performed using Pierce ECL Western Blotting Substrate (Thermo Fisher Scientific) and ImageQuant LAS-4000 (GE Healthcare).
In this example, the effects of TN-GL-01 composition on the expression of galectin-1 in ERK (extracellular-signal-regulated kinase) pathway was invesigated via western blot analysis. […] Thus, it was concluded that the present TN-GL-01 composition exerted its function through suppression of galectin -1.

[3] = tested on: ES-2 cells; assay: MTT assay (cell activity analysis) on ovarian cancer ES-2 cells; details: treatment at least 48 hrs
Procedure: as §1, with “The suspended cells were harvested and 2 mL fresh culture media were added therein to neutralize any remaining activity of trypsin. Cell density was adjusted by adding appropriate amounts of culture medium to the cell suspension, which was then used to seed the culture plates. The plates were then returned to the incubator, and cultured in accordance with the steps described above.” left out
as §2, with “Each sample was incubated at 37°C for 4 hours.” left out
The effects of the TN-GL-01 composition of example 1.1 on ovarian cancer cells (i.e., ES-2 cells) were evaluated by MTT assay in accordance with procedures described in the "Material and Methods" section.

[4] = Table 2, second agent alone: TN-GL-01 20 µg/mL, Doxorubicin 100 nM, Cisplatin 3 µM
[5] = Table 3, second agent alone: TN-GL-01 20 µg/mL, Paclitaxel 40 µM, Cisplatin 3 µM

In the case of `COc1cccc2c1C(=O)c1c(O)c3c(c(O)c1C2=O)C[C@@](O)(C(=O)CO)C[C@@H]3O[C@H]1C[C@H](N)[C@H](O)[C@H](C)O1` [Doxorubicin], the IC50 [1] is reported as 99 nM and the “Cell Survival Rate, single drug (factor of expected value)” value (shortened to “Cell Survival Rate, single drug”) [1, 4] is reported as 0.58.
`COc1cc([C@@H]2c3cc4c(cc3[C@@H](O[C@@H]3O[C@@H]5CO[C@@H](C)O[C@H]5[C@H](O)[C@H]3O)[C@H]3COC(=O)[C@H]23)OCO4)cc(OC)c1O` [Etoposide] was tested, and the IC50 [1] was 415 nM.
With `C/C(=C/CC[C@@H](C)[C@H]1CC[C@@]2(C)C3=CC[C@H]4C(C)(C)C(=O)CC[C@]4(C)C3=CC[C@]12C)C(=O)O` [GAS, ganoderic acid S] the “expression of galectin-1” value [2] was “effective in suppressing” and the “50% inhibition of ES-2 cells (IC50)” value [3] was 58.3 µg/mL.
In the case of `CC(=O)O[C@H]1C(=O)[C@@]2(C)[C@H]([C@H](OC(=O)c3ccccc3)[C@]3(O)C[C@H](OC(=O)[C@H](O)[C@@H](NC(=O)c4ccccc4)c4ccccc4)C(C)=C1C3(C)C)[C@]1(OC(C)=O)CO[C@@H]1C[C@@H]2O` [Paclitaxel], the “Cell Survival Rate, single drug” value ([1]; Table 2, Paclitaxel 62.5 nM alone) is reported as 0.68 × 0.82 = 0.56±0.03 and 0.68, the “Cell Survival Rate, single drug” value ([1]; Table 2, Paclitaxel 125 nM alone) is reported as 0.50 × 0.82 = 0.41±0.03 and 0.50 and the “Cell Survival Rate, single drug” value [1, 5] is reported as 0.65.
In the case of `CC(=O)O[C@@H](C/C=C(\C)C(=O)O)[C@@H](C)[C@H]1C[C@H](OC(C)=O)[C@@]2(C)C3=CC[C@H]4C(C)(C)[C@H](OC(C)=O)CC[C@]4(C)C3=CC[C@]12C` [GAT, ganoderic acid T], the “expression of galectin-1” value [2] is reported as “effective in suppressing” and the “50% inhibition of ES-2 cells (IC50)” value [3] is reported as 24.5 µg/mL.
With `N.N.[Cl][Pt][Cl]` [Cisplatin] the “Cell Survival Rate, single drug” value [1, 4] was 0.65 and the “Cell Survival Rate, single drug” value [1, 5] was 0.69.
